Target: recombinant human His-ATG7 enzyme (Homo sapiens (Human), UniProt O95352)
Experiment: ATG7 Enzyme Assay (HTRF/FRET, ATG3-GST and Flag-Gabarap)
Assay type: biochemical
Conditions: for inhibition at 0.111 µM: Concentration 0.111 μM, read-out: Percent Inhibition
Procedure, shortened: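 HTRF read-out after 2 h at 24° C, using Eu-cryptate anti-Flag and XL-APC anti-GST antibodies in an EDTA stop buffer. The preceding 105 min, 24° C reaction (pH 7.5) held 10 μM ATP, 5 nM each ATG3-GST and Flag-Gabarap, and 0.15 nM human His-ATG7. Values are IC50 or percent inhibition at one concentration.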

recombinant human His-ATG7 enzyme, sequence (O95352 whole entry): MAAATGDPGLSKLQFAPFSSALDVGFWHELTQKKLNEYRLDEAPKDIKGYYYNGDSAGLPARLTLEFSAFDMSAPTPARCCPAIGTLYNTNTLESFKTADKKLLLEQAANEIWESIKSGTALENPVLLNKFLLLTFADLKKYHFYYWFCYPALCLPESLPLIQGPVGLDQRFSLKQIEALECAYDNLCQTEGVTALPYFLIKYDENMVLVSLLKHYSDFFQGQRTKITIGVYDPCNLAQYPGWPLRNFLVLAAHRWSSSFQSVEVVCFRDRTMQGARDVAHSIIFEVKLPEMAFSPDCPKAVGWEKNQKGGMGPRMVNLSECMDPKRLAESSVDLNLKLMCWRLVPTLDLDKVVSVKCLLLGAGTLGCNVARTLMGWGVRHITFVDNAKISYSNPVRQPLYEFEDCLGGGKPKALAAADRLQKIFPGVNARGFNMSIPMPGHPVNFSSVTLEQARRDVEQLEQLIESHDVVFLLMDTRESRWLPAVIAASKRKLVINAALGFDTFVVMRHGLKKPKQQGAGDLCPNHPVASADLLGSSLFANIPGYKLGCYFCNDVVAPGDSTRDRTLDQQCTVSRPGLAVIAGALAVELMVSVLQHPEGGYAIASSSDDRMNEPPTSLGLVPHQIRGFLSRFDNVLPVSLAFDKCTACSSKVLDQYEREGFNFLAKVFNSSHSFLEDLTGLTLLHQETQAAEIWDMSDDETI

Row | IC50 | inhibition at 0.111 µM | Structure (SMILES)
1 | 20 to 50 nM | 83% | Nc1ncnc2c1c(Sc1cc(C(F)(F)F)ccn1)nn2[C@@H]1O[C@H](COS(N)(=O)=O)[C@@H](O)[C@@H]1F [Compound I-117, [(2R,3R,4S,5R)-5-(4-amino-3-{[4-(trifluoromethyl)pyridin-2-yl]sulfanyl}-1H-pyrazolo[3,4-d]pyrimidin-1-yl)-4-fluoro-3-hydroxytetrahydrofuran-2-yl]methyl sulfamate]
2 | 50 to 100 nM | 65% | Nc1ncnc2c1c(SCc1cccnc1)nn2[C@@H]1O[C@H](COS(N)(=O)=O)[C@@H](O)[C@@H]1F [Compound I-121, [(2R,3R,4S,5R)-5-{4-amino-3-[(pyridin-3-ylmethyl)sulfanyl]-1H-pyrazolo[3,4-d]pyrimidin-1-yl}-4-fluoro-3-hydroxytetrahydrofuran-2-yl]methyl sulfamate]
3 | 50 to 100 nM | 52% | Nc1ncnc2c1c(SCc1ccncc1)nn2[C@@H]1O[C@H](COS(N)(=O)=O)[C@@H](O)[C@@H]1F [Compound I-124, [(2R,3R,4S,5R)-5-{4-amino-3-[(pyridin-4-ylmethyl)sulfanyl]-1H-pyrazolo[3,4-d]pyrimidin-1-yl}-4-fluoro-3-hydroxytetrahydrofuran-2-yl]methyl sulfamate]
4 | 100 to 500 nM | 37% | Cn1ccnc1Sc1nn([C@@H]2O[C@H](COS(N)(=O)=O)[C@@H](O)[C@@H]2F)c2ncnc(N)c12 [Compound I-125, [(2R,3R,4S,5R)-5-{4-amino-3-[(1-methyl-1H-imidazol-2-yl)sulfanyl]-1H-pyrazolo[3,4-d]pyrimidin-1-yl}-4-fluoro-3-hydroxytetrahydrofuran-2-yl]methyl sulfamate]
5 | 20 to 50 nM | 71% | Nc1ncnc2c1c(Sc1ccc(F)cc1)nn2[C@@H]1O[C@H](COS(N)(=O)=O)[C@@H](O)[C@@H]1F [Compound I-126, [(2R,3R,4S,5R)-5-{4-amino-3-[(4-fluorophenyl)sulfanyl]-1H-pyrazolo[3,4-d]pyrimidin-1-yl}-4-fluoro-3-hydroxytetrahydrofuran-2-yl]methyl sulfamate]
6 | 20 to 50 nM | 77% | N#Cc1ccnc(Sc2nn([C@@H]3O[C@H](COS(N)(=O)=O)[C@@H](O)[C@@H]3F)c3ncnc(N)c23)c1 [Compound I-130, [(2R,3R,4S,5R)-5-{4-amino-3-[(4-cyanopyridin-2-yl)sulfanyl]-1H-pyrazolo[3,4-d]pyrimidin-1-yl}-4-fluoro-3-hydroxytetrahydrofuran-2-yl]methyl sulfamate]
7 | 50 to 100 nM | 60% | Nc1ncnc2c1c(Sc1ccc(C(F)(F)F)cc1)nn2[C@@H]1O[C@H](COS(N)(=O)=O)[C@@H](O)[C@@H]1F [Compound I-132, [(2R,3R,4S,5R)-5-(4-amino-3-{[4-(trifluoromethyl)phenyl]sulfanyl}-1H-pyrazolo[3,4-d]pyrimidin-1-yl)-4-fluoro-3-hydroxytetrahydrofuran-2-yl]methyl sulfamate]
8 | 20 to 50 nM | 67% | Nc1ncnc2c1c(Sc1ccc(Cl)cc1)nn2[C@@H]1O[C@H](COS(N)(=O)=O)[C@@H](O)[C@@H]1F [Compound I-133, [(2R,3R,4S,5R)-5-{4-amino-3-[(4-chlorophenyl)sulfanyl]-1H-pyrazolo[3,4-d]pyrimidin-1-yl}-4-fluoro-3-hydroxytetrahydrofuran-2-yl]methyl sulfamate]
9 | 100 to 500 nM | 37% | Cn1cncc1Sc1nn([C@@H]2O[C@H](COS(N)(=O)=O)[C@@H](O)[C@@H]2F)c2ncnc(N)c12 [Compound I-134, [(2R,3R,4S,5R)-5-{4-amino-3-[(1-methyl-1H-imidazol-5-yl)sulfanyl]-1H-pyrazolo[3,4-d]pyrimidin-1-yl}-4-fluoro-3-hydroxytetrahydrofuran-2-yl]methyl Sulfamate]

The remaining lines, values behind:

Row | Structure (SMILES) | IC50 | inhibition at 0.111 µM
10 | CC(C)(C)Sc1nn([C@@H]2O[C@H](COS(N)(=O)=O)[C@@H](O)[C@@H]2F)c2ncnc(N)c12 [Compound I-118, {(2R,3R,4S,5R)-5-[4-amino-3-(tert-butylsulfanyl)-1H-pyrazolo[3,4-d]pyrimidin-1-yl]-4-fluoro-3-hydroxytetrahydrofuran-2-yl}methyl sulfamate] | < 20 nM | 86%
11 | Nc1ncnc2c1c(SCc1ccccn1)nn2[C@@H]1O[C@H](COS(N)(=O)=O)[C@@H](O)[C@@H]1F [Compound I-119, [(2R,3R,4S,5R)-5-{4-amino-3-[(pyridin-2-ylmethyl)sulfanyl]-1H-pyrazolo[3,4-d]pyrimidin-1-yl}-4-fluoro-3-hydroxytetrahydrofuran-2-yl]methyl sulfamate] | 50 to 100 nM | 65%
12 | CCC(CC)Sc1nn([C@@H]2O[C@H](COS(N)(=O)=O)[C@@H](O)[C@@H]2F)c2ncnc(N)c12 [Compound I-120, {(2R,3R,4S,5R)-5-[4-amino-3-(pentan-3-ylsulfanyl)-1H-pyrazolo[3,4-d]pyrimidin-1-yl]-4-fluoro-3-hydroxytetrahydrofuran-2-yl}methyl sulfamate] | 100 to 500 nM | 46%
13 | Nc1ncnc2c1c(SC1CCCCC1)nn2[C@@H]1O[C@H](COS(N)(=O)=O)[C@@H](O)[C@@H]1F [Compound I-122, {(2R,3R,4S,5R)-5-[4-amino-3-(cyclohexylsulfanyl)-1H-pyrazolo[3,4-d]pyrimidin-1-yl]-4-fluoro-3-hydroxytetrahydrofuran-2-yl}methyl sulfamate] | 20 to 50 nM | 80%
14 | Nc1ncnc2c1c(SCc1cccnn1)nn2[C@@H]1O[C@H](COS(N)(=O)=O)[C@@H](O)[C@@H]1F [Compound I-127, [(2R,3R,4S,5R)-5-{4-amino-3-[(pyridazin-3-ylmethyl)sulfanyl]-1H-pyrazolo[3,4-d]pyrimidin-1-yl}-4-fluoro-3-hydroxytetrahydrofuran-2-yl]methyl sulfamate] | 50 to 100 nM | 61%
15 | Nc1ncnc2c1c(SCc1ccnnc1)nn2[C@@H]1O[C@H](COS(N)(=O)=O)[C@@H](O)[C@@H]1F [Compound I-128, [(2R,3R,4S,5R)-5-{4-amino-3-[(pyridazin-4-ylmethyl)sulfanyl]-1H-pyrazolo[3,4-d]pyrimidin-1-yl}-4-fluoro-3-hydroxytetrahydrofuran-2-yl]methyl sulfamate] | 50 to 100 nM | 52%
16 | CC(C)[C@@H](C)Sc1nn([C@@H]2O[C@H](COS(N)(=O)=O)[C@@H](O)[C@@H]2F)c2ncnc(N)c12 [Compound I-129, [(2R,3R,4S,5R)-5-(4-amino-3-{[(2R)-3-methylbutan-2-yl]sulfanyl}-1H-pyrazolo[3,4-d]pyrimidin-1-yl)-4-fluoro-3-hydroxytetrahydrofuran-2-yl]methyl sulfamate] | 100 to 500 nM | 48%
17 | Nc1ncnc2c1c(SCC1CC1)nn2[C@@H]1O[C@H](COS(N)(=O)=O)[C@@H](O)[C@@H]1F [Compound I-135, [(2R,3R,4S,5R)-5-{4-amino-3-[(cyclopropylmethyl)sulfanyl]-1H-pyrazolo[3,4-d]pyrimidin-1-yl}-4-fluoro-3-hydroxytetrahydrofuran-2-yl]methyl sulfamate] | 20 to 50 nM | 82%
